Test results taken from patent US5089623A, “Certain imidate insecticides” (Imperial Chemical Industries Plc, priority 1990, dated 1992).

What was measured:
Assay type in all cases: in vivo
[1] = system: Cabbage Looper [Trichoplusia ni (Hubner)]; experiment: Cabbage looper test (CL); settings: second-instar larvae, 3-5 days, percent in solution
[2] = system: Housefly [Musca domestica]; experiment: Housefly insecticidal test (HF); settings: per 25 female houseflies, 48 hours
[3] = system: Tobacco Budworm [Heliothis virescens (Fabricius)] eggs; experiment: Tobacco budworm egg test (TBW-E); settings: percent in solution
[4] = system: Aster Leafhopper [Macrosteles fascifrens (Stal)]; experiment: Aster leafhopper test (LH); settings: adults/nymphs, 48 hours, percent in solution
[5] = system: Maize weevil [Sitophilus Zeamais (Motschulsky)]; experiment: Maize weevil test (MW); settings: adult weevils, treated corn seeds, 48 hours, percent in solution
In short: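 Adult weevils (10) were placed with four corn seeds that had been dipped 2-3 s in compound dissolved in 50:50 acetone:water, then dried, and held at about 25° C. Mortality was scored at 48 h. LC50 was taken from dosage-mortality curves and expressed as percent compound in solution, from a 0.01% top concentration.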

| Compound | LC50 CL [1] | LC50 HF [2] | LC50 TBW E [3] | LC50 LH [4] | LC50 MW [5] |
| --- | --- | --- | --- | --- | --- |
| CCOC(=O)c1cc(N=C(OCc2cccc(Oc3ccccc3)c2)C(C)C)ccc1Cl [Compound 102] | 0.075% | > 100 µg | > 0.1% | > 0.05% |  |
| Fc1ccc(Oc2cccc(COC(=Nc3cccc(C(F)(F)F)c3)C3CC3)c2)cc1 [Compound 294] | 0.017% | > 100 µg | > 0.1% |  | > 0.01% |
| CC(C)C(=Nc1ccc(OCC(F)(F)F)cc1)OCc1cccc(Oc2ccccc2)c1 [Compound 423] | 0.002% | > 100 µg | > 0.1% |  | > 0.01% |
| CC(C)C(=Nc1ccc(Br)c(Br)c1)OCc1ccc(F)c(Oc2ccc(F)cc2)c1 [Compound 383] | 0.00029% | < 100 µg | 0.038% |  | > 0.01% |
| CC(C)C(=Nc1ccc(I)c(Cl)c1)OCc1cccc(Oc2ccc(F)cc2)c1 [Compound 374] | 0.00058% | < 100 µg | 0.02% |  | > 0.01% |
| Cc1cccc(N=C(OCc2cccc(Oc3ccc(F)cc3)c2)C(C)C)c1 [Compound 405] | > 0.1% | < 100 µg | > 0.1% |  | > 0.01% |
| CC(C)C(=Nc1ccc(C#N)cc1)OCc1ccc(F)c(Oc2ccc(F)cc2)c1 [Compound 394] | 0.00025% | < 100 µg | 0.05% |  | > 0.01% |
| Cc1cc(N=C(OCc2ccc(F)c(Oc3ccc(Cl)cc3)c2)C(C)C)ccc1Br [Compound 407] | > 0.1% | > 100 µg | 0.05% |  | > 0.01% |
| CC(C)C(=Nc1ccc(F)c(I)c1)OCc1cccc(Oc2ccc(Cl)cc2)c1 [Compound 413] | 0.0007% | < 100 µg | 0.04% |  | > 0.01% |
| CCCc1ccc(N=C(OCc2ccc(F)c(Oc3ccc(F)cc3)c2)C(C)C)cc1 [Compound 440] | 0.002% | > 100 µg | < 0.1% |  | > 0.01% |
| CC(C)C(=Nc1ccc(OCC(F)(F)F)c(Cl)c1)OCc1cccc(Oc2ccccc2)c1 [Compound 425] | 0.00075% | > 100 µg | > 0.1% |  | > 0.01% |
| CC(C)C(=Nc1cccc(I)c1)OCc1cccc(Oc2ccc(Cl)cc2)c1 [Compound 389] | 0.00069% | < 100 µg | > 0.1% |  | > 0.01% |
| Cc1ccc(N=C(OCc2ccc(F)c(Oc3ccc(Cl)cc3)c2)C(C)C)cc1Cl [Compound 404] | > 0.1% | < 100 µg | 0.025% |  | > 0.01% |
| Cc1cccc(N=C(OCc2ccc(F)c(Oc3ccc(Cl)cc3)c2)C(C)C)c1 [Compound 401] | 0.0017% | < 100 µg | 0.04% |  | > 0.01% |
| CCc1ccccc1N=C(OCc1cccc(Oc2ccc(F)cc2)c1)C(C)C [Compound 411] | > 0.1% | < 100 µg | > 0.1% |  | > 0.01% |
| CC(C)C(=Nc1cccc(C(F)(F)F)c1)OCc1cc(Oc2ccccc2)ccn1 [Compound 506] | 0.005% | 40 µg | > 0.1% |  | > 0.01% |
| C=C(C)C(=Nc1ccc(F)c(Cl)c1)OCc1cccc(Oc2ccccc2)c1 [Compound 417] | 0.0008% | < 100 µg | 0.04% |  | < 0.01% |

| Compound | LC50 CL [1] | LC50 HF [2] | LC50 TBW E [3] | LC50 LH [4] | LC50 MW [5] |
| --- | --- | --- | --- | --- | --- |
| CC(C)C(=Nc1ccc(F)c(Br)c1)OCc1cccc(Oc2ccccc2)n1 [Compound 558] | 0.00045% | < 100 µg | > 0.1% |  | > 0.01% |
| CC(C)C(=Nc1ccc(Br)c(F)c1)OCc1cccc(Oc2ccc(Cl)cc2)n1 [Compound 551] | 0.00075% | < 100 µg | 0.035% |  | > 0.01% |
| Cc1cc(N=C(OCc2ccc(F)c(Oc3ccccc3)c2)C(C)C)ccc1F [Compound 400] | 0.0007% | < 100 µg | 0.025% |  | > 0.01% |
| Cc1ccc(N=C(OCc2cccc(Oc3ccc(F)cc3)c2)C(C)C)cc1Cl [Compound 402] | > 0.1% | < 100 µg | > 0.1% |  | > 0.01% |
| CC(C)C(=Nc1ccc(OCC(F)(F)F)cc1)OCc1ccc(F)c(Oc2ccccc2)c1 [Compound 422] | 0.00075% | < 100 µg | 0.05% |  | > 0.01% |
| CCOc1ccc(N=C(OCc2cccc(Oc3ccc(F)cc3)c2)C(C)C)cc1Br [Compound 446] | 0.0008% | > 100 µg | < 0.1% |  | > 0.01% |
| Cc1cc(N=C(OCc2ccc(F)c(Oc3ccc(Cl)cc3)c2)C(C)C)ccc1F [Compound 399] | 0.0012% | < 100 µg | 0.025% |  | > 0.01% |
| CC(C)C(=Nc1cccc(Cl)c1)OCc1ccc(F)c(Oc2ccc(Cl)cc2)c1 [Compound 390] | 0.0021% | < 100 µg | 0.045% |  | > 0.01% |
| CC(C)C(=Nc1ccc(C#N)cc1)OCc1ccc(F)c(Oc2ccc(Cl)cc2)c1 [Compound 392] | 0.00034% | < 100 µg | 0.039% |  | > 0.01% |
| COc1ccc(N=C(OCc2ccc(F)c(Oc3ccccc3)c2)C(C)C)cc1F [Compound 435] | 0.002% | < 100 µg | 0.04% |  | > 0.01% |
| CC(C)C(=Nc1ccc2c(c1)OC(F)(F)O2)OCc1cccc(Oc2ccccc2)n1 [Compound 556] | 0.0007% | < 100 µg | 0.04% |  | > 0.01% |
| CC(C)C(=Nc1ccc(C(C)(C)C)cc1)OCc1ccc(F)c(Oc2ccc(Cl)cc2)c1 [Compound 301] | 0.008% | > 100 µg | > 0.1% |  | > 0.01% |
| CC(C)C(=Nc1ccc(F)cc1F)OCc1coc(Cc2ccccc2)c1 [Compound 486] | > 0.1% | 15 µg | > 0.1% |  | > 0.01% |
| CC(C)C(=Nc1ccc(F)c(Br)c1)OCc1ccc(F)c(Oc2ccccc2)c1 [Compound 299] | 0.0005% | 8 µg | 0.017% |  | > 0.01% |
| CC(C)C(=Nc1ccc(OCC(F)(F)F)c(Cl)c1)OCc1cccc(Oc2ccc(Cl)cc2)c1 [Compound 421] | 0.002% | > 100 µg | < 0.1% |  | > 0.01% |
| CC(C)c1ccc(N=C(OCc2cccc(Oc3ccccc3)c2)C2CCC2)cc1 [Compound 339] | 0.017% | > 100 µg | > 0.1% |  | > 0.01% |
| CC(C)C(=Nc1cccc(C(F)(F)F)c1)OCc1ccnc(Oc2ccccc2)c1 [Compound 507] | 0.002% | 93 µg | > 0.1% |  | > 0.01% |
